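Growth conditions: 96-well plates. Treatment: test compound, 48 hours, 5 concentrations. Analysis: linear interpolation between bracketing concentrations; unreached endpoints set to highest concentration. GI50 = concentration required for 50% inhibition of growth.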 The source made the active and inactive calls. Cut-off read from the data, not from the text of the source: active = GI50 up to about 1.1 µM and inactive = higher.
Legend:
Test in all cases: DTP human tumour cell line panel, 48 h
UACC-257 = tested on: UACC-257
M14 = tested on: M14
SF-268 = tested on: SF-268
A498 = tested on: A498
HCT-116 = tested on: HCT-116
HOP-62 = tested on: HOP-62
LXFL 529 = tested on: LXFL 529
HCT-15 = tested on: HCT-15
MOLT-4 = tested on: MOLT-4
U-251 = tested on: U-251
OVCAR-4 = tested on: OVCAR-4
RXF 631 = tested on: RXF 631
M19-MEL = tested on: M19-MEL
XF498 = tested on: XF498
UO-31 = tested on: UO-31
DMS-273 = tested on: DMS-273
SF-295 = tested on: SF-295
CCRF-CEM = tested on: CCRF-CEM
A549 = tested on: A549
SNB-19 = tested on: SNB-19
SR = tested on: SR
Malme-3M = tested on: Malme-3M
SK-MEL-5 = tested on: SK-MEL-5
DLD-1 = tested on: DLD-1
SK-OV-3 = tested on: SK-OV-3
IGROV-1 = tested on: IGROV-1
RPMI-8226 = tested on: RPMI-8226
UACC-62 = tested on: UACC-62
K562 = tested on: K562
TK-10 = tested on: TK-10
SN12C = tested on: SN12C
OVCAR-3 = tested on: OVCAR-3
NCI-H460 = tested on: NCI-H460
ACHN = tested on: ACHN
HOP-92 = tested on: HOP-92
EKVX = tested on: EKVX
786-0 = tested on: 786-0
KM-20L2 = tested on: KM-20L2
OVCAR-5 = tested on: OVCAR-5
LOX IMVI = tested on: LOX IMVI
HL-60 = tested on: HL-60
COLO 205 = tested on: COLO 205
RXF 393 = tested on: RXF 393
SW-620 = tested on: SW-620
HCC 2998 = tested on: HCC 2998
SNB-75 = tested on: SNB-75
SK-MEL-28 = tested on: SK-MEL-28
KM12 = tested on: KM12
OVCAR-8 = tested on: OVCAR-8
DMS-114 = tested on: DMS-114
HOP-18 = tested on: HOP-18
SK-MEL-2 = tested on: SK-MEL-2
SF-539 = tested on: SF-539
SNB-78 = tested on: SNB-78
HT-29 = tested on: HT-29
CAKI-1 = tested on: CAKI-1
NCI-H23 = tested on: NCI-H23
NCI-H522 = tested on: NCI-H522
NCI-H226 = tested on: NCI-H226

For CCc1cc2c(Nc3ccccc3)c3c(nc2s1)CCCC3, the GI50 (UACC-257) was > 100 µM (inactive), the GI50 (M14) was > 100 µM (inactive) and the GI50 (SF-268) was 76.6 µM (inactive). For the same compound, the GI50 (A498) was 25.8 µM (inactive), the GI50 (HCT-116) was 9.35 µM (inactive) and the GI50 (HOP-62) was 79.4 µM (inactive). For the same compound, the GI50 (LXFL 529) was 14.2 µM (inactive), the GI50 (HCT-15) was 38.8 µM and the GI50 (MOLT-4) was 3.23 µM (inactive). For the same compound, the GI50 (U-251) was 22 µM (inactive), the GI50 (OVCAR-4) was 24 µM (inactive) and the GI50 (RXF 631) was 35.2 µM (inactive). For the same compound, the GI50 (M19-MEL) was 40.7 µM (inactive), the GI50 (XF498) was 13.4 µM (inactive) and the GI50 (UO-31) was 3.99 µM (inactive). For the same compound, the GI50 (DMS-273) was > 100 µM (inactive), the GI50 (SF-295) was 28.8 µM (inactive) and the GI50 (CCRF-CEM) was 20.9 µM (inactive). The GI50 (A549) was 8.53 µM (inactive), the GI50 (SNB-19) was > 100 µM (inactive) and the GI50 (SR) was 5.3 µM (inactive). The GI50 (Malme-3M) was > 100 µM (inactive), the GI50 (SK-MEL-5) was 4.79 µM (inactive) and the GI50 (DLD-1) was 19.4 µM (inactive). For the same compound, the GI50 (SK-OV-3) was > 100 µM (inactive), the GI50 (IGROV-1) was > 100 µM (inactive) and the GI50 (RPMI-8226) was 3.71 µM (inactive). The GI50 (UACC-62) was 15.3 µM (inactive), the GI50 (K562) was 3.41 µM (inactive) and the GI50 (TK-10) was > 100 µM (inactive). The GI50 (SN12C) was > 100 µM (inactive), the GI50 (OVCAR-3) was 6.56 µM (inactive) and the GI50 (NCI-H460) was > 100 µM (inactive). The GI50 (ACHN) was 94.2 µM (inactive), the GI50 (HOP-92) was 16.7 µM (inactive) and the GI50 (EKVX) was > 100 µM (inactive). For the same compound, the GI50 (786-0) was 29.2 µM (inactive), the GI50 (KM-20L2) was > 100 µM (inactive) and the GI50 (OVCAR-5) was > 100 µM (inactive). The GI50 (LOX IMVI) was 11.4 µM (inactive), the GI50 (HL-60) was 6.05 µM (inactive) and the GI50 (COLO 205) was > 100 µM (inactive). For the same compound, the GI50 (RXF 393) was 22.4 µM (inactive), the GI50 (SW-620) was 80.5 µM (inactive) and the GI50 (HCC 2998) was > 100 µM (inactive). For the same compound, the GI50 (SNB-75) was 7.46 µM (inactive), the GI50 (SK-MEL-28) was > 100 µM (inactive) and the GI50 (KM12) was > 100 µM (inactive). The GI50 (OVCAR-8) was > 100 µM (inactive), the GI50 (DMS-114) was 27.5 µM (inactive) and the GI50 (HOP-18) was > 100 µM (inactive). The GI50 (SK-MEL-2) was > 100 µM (inactive), the GI50 (SF-539) was 43 µM (inactive) and the GI50 (SNB-78) was 28.9 µM (inactive).
In the case of CC(=O)OC1COC(n2c(=S)n(-c3ccccc3)c(=O)c3ccccc32)C(OC(C)=O)C1OC(C)=O (stereo unspecified), the GI50 (UACC-257) is reported as > 100 µM (inactive), the GI50 (M14) is reported as 21.3 µM (inactive) and the GI50 (SF-268) is reported as 89.9 µM (inactive). The GI50 (A498) was > 100 µM (inactive), the GI50 (HCT-116) was 47.9 µM (inactive) and the GI50 (HOP-62) was > 100 µM (inactive). For the same compound, the GI50 (LXFL 529) was 8.55 µM (inactive), the GI50 (HCT-15) was 6 µM and the GI50 (MOLT-4) was 21 µM (inactive). For the same compound, the GI50 (U-251) was 78.5 µM (inactive), the GI50 (OVCAR-4) was 26.8 µM (inactive) and the GI50 (HT-29) was 85.3 µM (inactive). For the same compound, the GI50 (RXF 631) was 47.9 µM (inactive), the GI50 (CAKI-1) was 2.94 µM (inactive) and the GI50 (XF498) was 74.6 µM (inactive). The GI50 (UO-31) was 48.9 µM (inactive), the GI50 (DMS-273) was 19.2 µM (inactive) and the GI50 (SF-295) was 19.9 µM (inactive). The GI50 (CCRF-CEM) was 32.7 µM (inactive), the GI50 (A549) was 39.9 µM (inactive) and the GI50 (SNB-19) was > 100 µM (inactive). The GI50 (Malme-3M) was > 100 µM (inactive), the GI50 (SK-MEL-5) was 98.2 µM (inactive) and the GI50 (DLD-1) was 56.5 µM (inactive). The GI50 (SK-OV-3) was > 100 µM (inactive), the GI50 (IGROV-1) was 67.3 µM (inactive) and the GI50 (RPMI-8226) was 22.5 µM (inactive). The GI50 (UACC-62) was 4.05 µM (inactive), the GI50 (K562) was 2.51 µM (inactive) and the GI50 (SN12C) was > 100 µM (inactive). The GI50 (OVCAR-3) was 74.6 µM (inactive), the GI50 (NCI-H460) was 66.1 µM (inactive) and the GI50 (NCI-H23) was 70 µM (inactive). The GI50 (ACHN) was 25.2 µM (inactive), the GI50 (NCI-H522) was 35 µM (inactive) and the GI50 (HOP-92) was 37.1 µM (inactive). For the same compound, the GI50 (EKVX) was > 100 µM (inactive), the GI50 (786-0) was 78.9 µM (inactive) and the GI50 (KM-20L2) was 4.29 µM (inactive). The GI50 (OVCAR-5) was > 100 µM (inactive), the GI50 (LOX IMVI) was 21.4 µM (inactive) and the GI50 (HL-60) was 20.4 µM (inactive). The GI50 (NCI-H226) was > 100 µM (inactive), the GI50 (COLO 205) was 99.1 µM (inactive) and the GI50 (RXF 393) was 55.3 µM (inactive). For the same compound, the GI50 (SW-620) was 44.6 µM (inactive), the GI50 (HCC 2998) was 58.2 µM (inactive) and the GI50 (SNB-75) was > 100 µM (inactive). For the same compound, the GI50 (SK-MEL-28) was > 100 µM (inactive), the GI50 (KM12) was 29.2 µM (inactive) and the GI50 (OVCAR-8) was 72.8 µM (inactive). The GI50 (DMS-114) was 40.6 µM (inactive), the GI50 (HOP-18) was > 100 µM (inactive) and the GI50 (SK-MEL-2) was 13.1 µM (inactive). The GI50 (SF-539) was > 100 µM (inactive) and the GI50 (SNB-78) was > 100 µM (inactive).
For O=S(=O)(NCn1ccc2ccccc21)c1ccccc1, the GI50 (UACC-257) was > 88.7 µM (inactive), the GI50 (M14) was > 100 µM (inactive) and the GI50 (SF-268) was > 57.8 µM (inactive). For the same compound, the GI50 (A498) was > 100 µM (inactive), the GI50 (HCT-116) was 49.3 µM (inactive) and the GI50 (HOP-62) was > 100 µM (inactive). For the same compound, the GI50 (LXFL 529) was > 100 µM (inactive), the GI50 (HCT-15) was greater than 57.7 µM and the GI50 (MOLT-4) was > 100 µM (inactive). The GI50 (U-251) was > 100 µM (inactive), the GI50 (HT-29) was 37 µM (inactive) and the GI50 (RXF 631) was > 100 µM (inactive). For the same compound, the GI50 (M19-MEL) was > 100 µM (inactive), the GI50 (XF498) was > 100 µM (inactive) and the GI50 (UO-31) was > 100 µM (inactive). The GI50 (DMS-273) was > 64.3 µM (inactive), the GI50 (SF-295) was > 100 µM (inactive) and the GI50 (CCRF-CEM) was > 88.5 µM (inactive). For the same compound, the GI50 (A549) was > 100 µM (inactive), the GI50 (SNB-19) was > 31.6 µM (inactive) and the GI50 (SR) was 31.6 µM (inactive). The GI50 (Malme-3M) was > 100 µM (inactive), the GI50 (SK-MEL-5) was > 100 µM (inactive) and the GI50 (DLD-1) was 40.9 µM (inactive). For the same compound, the GI50 (SK-OV-3) was > 100 µM (inactive), the GI50 (IGROV-1) was > 100 µM (inactive) and the GI50 (RPMI-8226) was 21.5 µM (inactive). The GI50 (UACC-62) was > 73.8 µM (inactive), the GI50 (K562) was > 100 µM (inactive) and the GI50 (TK-10) was > 100 µM (inactive). For the same compound, the GI50 (SN12C) was > 100 µM (inactive), the GI50 (OVCAR-3) was > 100 µM (inactive) and the GI50 (NCI-H460) was > 100 µM (inactive). The GI50 (NCI-H23) was > 100 µM (inactive), the GI50 (ACHN) was 97.5 µM (inactive) and the GI50 (NCI-H522) was > 100 µM (inactive). For the same compound, the GI50 (HOP-92) was > 100 µM (inactive), the GI50 (EKVX) was > 100 µM (inactive) and the GI50 (786-0) was > 100 µM (inactive). The GI50 (KM-20L2) was > 100 µM (inactive), the GI50 (OVCAR-5) was > 100 µM (inactive) and the GI50 (LOX IMVI) was 66.5 µM (inactive). The GI50 (HL-60) was 22.4 µM (inactive), the GI50 (NCI-H226) was > 100 µM (inactive) and the GI50 (COLO 205) was > 79.8 µM (inactive). The GI50 (RXF 393) was > 63.8 µM (inactive), the GI50 (SW-620) was 38.4 µM (inactive) and the GI50 (HCC 2998) was > 100 µM (inactive). For the same compound, the GI50 (SNB-75) was > 100 µM (inactive), the GI50 (SK-MEL-28) was > 77.8 µM (inactive) and the GI50 (KM12) was > 60.7 µM (inactive). The GI50 (OVCAR-8) was > 76.2 µM (inactive), the GI50 (HOP-18) was > 100 µM (inactive) and the GI50 (SK-MEL-2) was > 100 µM (inactive). The GI50 (SF-539) was > 100 µM (inactive) and the GI50 (SNB-78) was > 53.1 µM (inactive).
